{"source": "patent US6410535B1", "about": "“Prophylactic or therapeutic agents for diseases having vascular dysfunction associated with insulin resistance” (Suntory Limited, priority 1998, dated 2002)", "key": {"[1]": {"conditions": "as reported in Japanese Patent Public Disclosure No. 25323/84; cited from earlier work"}, "[2]": {"conditions": "rat, in vivo, po"}, "[3]": {"tested_on": "thoracic aorta tissue sections", "test": "Superoxide anion (O2−) production level in thoracic aorta tissue sections, lucigenin-enhanced chemiluminescence", "type": "in vivo, Sprague-Dawley rats", "conditions": "for O2− production level, Average: 10 mg BH4 dihydrochloride/kg/day oral, 8 weeks", "method": "(§1) Male Sprague-Dawley rats (150 g, supplied from Charles River) were used to prepare a model group with insulin resistance induced by fructose feed loading (hereinafter referred to as “FR group”) according to the procedure described by Hwang et al. (Hwang, I-H. et al., Hypertension 10:512, 1987). A control group grown with a starch feed (hereinafter referred to as “CTR group”) was also prepared (FR group: n=16; CTR group: n=16). FR group received a feed containing 67% (hereinafter meaning % by weight) carbohydrate (containing 98% fructose available from Oriental Yeast Co., Ltd.), 13% fat and 20% protein, while CTR group received a feed containing 58% carbohydrate, 12% fat and […]. […] After 8 weeks, the thoracic aorta was collected. For each group, endothelium-separated sections (EC (−)) and non-separated sections (EC (+)) were prepared and examined for superoxide anion (O2^−) production level, endothelial NOS (eNOS) activity and endothelium-dependent vasorelaxation.\n(§2) Group-to-group statistic analyses were made by one-way ANOVA, with the significance level being p<0.05. Multiple comparison was made by Bonferronl/Dunn, with the significance level being p<0.05.\nMeasurement of O2^− production level was made by the lucigenin-enhanced chemiluminescence method (Ohara et al., J. Clin. Invest. 91: 2546, 1993)."}, "endothelial NOS (eNOS)": {"molecular_target": "T1, endothelial NOS (eNOS) (Rattus norvegicus, UniProt Q62600)", "T1 construct": "After 8 weeks, the thoracic aorta was collected; from tissue; host or cells: thoracic aorta sections with endothelium (EC (+)) of Sprague-Dawley rats", "test": "Endothelial NOS activity in thoracic aorta sections", "type": "in vivo, Sprague-Dawley rats", "conditions": "for eNOS activity, Average: 10 mg/kg/day oral, 8 weeks", "method": "as §1, §2\nMeasurement of eNOS activity was made according to Rees, D. et al., Hypertension 28: 367, 1996."}, "thoracic aorta sections [4]": {"tested_on": "thoracic aorta sections", "test": "Endothelium-dependent vasorelaxation induced by acetylcholine, isometric tensiometry", "type": "in vivo, Sprague-Dawley rats", "conditions": "for Endothelium-dependent vasorelaxation induced by acetylcholine, Average / Endothelium-dependent vasorelaxation induced by acetylcholine, Average (TABLE 3): 10 mg/kg/day oral, 8 weeks; for Endothelium-dependent vasorelaxation induced by acetylcholine, Average: acetylcholine 10^−5 M, vs 10^−4 M papaverine; for Endothelium-dependent vasorelaxation induced by acetylcholine, Average (TABLE 3): repeat print of Table 3", "method": "as §1, §2\nMeasurement of endothelium-dependent vasorelaxation was made by the isometric tensiometry (Toda, N. et al., Stroke 24: 1584, 1993) using ink-writing oscillographs (Nippon Kohden Corporation) and a force-displacement transducer (Nippon Kohden Corporation). Data were shown as % maximum relaxation vs. the maximum relaxation induced by 10^−4 M papaverine after aortic sections were partially precontracted with 1-3×10^−7 M 1-phenylephrine. Endothelium-dependent vasorelaxation induced by acetylcholine (10^−5M) and calcium ionophore (A23187, Sigma) (3×10^−7 M) in EC (+) of each of the 4 groups are shown in Tables 3 and 4, respectively."}, "thoracic aorta sections [5]": {"tested_on": "thoracic aorta sections", "test": "Endothelium-dependent vasorelaxation induced by calcium ionophore (A23187), isometric tensiometry", "type": "in vivo, Sprague-Dawley rats", "conditions": "FR group, EC (+), A23187 3×10^−7 M", "method": "as §1\nGroup-to-group statistic analyses were made by one-way ANOVA, with the significance level being p<0.05. Multiple comparison was made by Bonferronl/Dunn, with the significance level being p<0.05. […]"}, "[6]": {"conditions": "CTR + BH4 group (starch feed), EC (+)"}, "[7]": {"conditions": "FR + BH4 group (fructose-fed, insulin resistant), EC (+)"}}, "note": "Where a name gives a salt, the structure may show the parent alone."}
{"molecule": "C[C@H](O)[C@H](O)C1CNc2nc(N)[nH]c(=O)c2N1", "note": "(stereo partly drawn) [(6R,S)-5,6,7,8-tetrahydrobiopterin]", "values": [{"measurement": "toxicity (in words)", "setting": "[1]", "value": "only slightly toxic"}]}
{"molecule": "CC(O)C(O)C1CNc2nc(N)[nH]c(=O)c2N1", "note": "[BH4 dihydrochloride, (6R)-L-erythro-5,6,7,8-tetrahydrobiopterin]", "values": [{"measurement": "acute toxicity", "setting": "[2]", "value": "≥ 2 g/kg (body weight)"}]}
{"molecule": "CC(O)C(O)C1CNc2nc(N)[nH]c(=O)c2N1", "note": "[BH4, (6R)-L-erythro-5,6,7,8-tetrahydrobiopterin]", "values": [{"measurement": "O2− production level, Average", "setting": "[3]; [6]", "value": "189.3 100 cpm/mg dry weight"}, {"measurement": "change of O2− production level by BH4 administration (in words)", "setting": "[3]; CTR group", "value": "any significant change was not observed"}, {"measurement": "O2− production level, difference among the 4 groups (in words)", "setting": "[3]; EC (−) endothelium-separated sections", "value": "No significant difference"}, {"measurement": "O2− production level, Average", "setting": "[3]; [7]", "value": "118.0 100 cpm/mg dry weight"}, {"measurement": "change of O2− production level by BH4 administration (in words)", "setting": "[3]; FR group, EC (+)", "value": "significantly (p<0.001) decreased"}, {"measurement": "eNOS activity, Average", "setting": "endothelial NOS (eNOS); [6]", "value": 57.0, "unit": "pmol/min/mg protein"}, {"measurement": "change of eNOS activity by BH4 administration (in words)", "setting": "endothelial NOS (eNOS); CTR group", "value": "any significant change was not observed"}, {"measurement": "eNOS activity, Average", "setting": "endothelial NOS (eNOS); [7]", "value": 60.2, "unit": "pmol/min/mg protein"}, {"measurement": "change of eNOS activity by BH4 administration (in words)", "setting": "endothelial NOS (eNOS); FR group, EC (+)", "value": "significantly (p<0.001) improved"}, {"measurement": "Endothelium-dependent vasorelaxation induced by acetylcholine, Average", "setting": "thoracic aorta sections [4]; CTR + BH4 group, EC (+)", "value": 92.9, "unit": "% maximum relaxation"}, {"measurement": "Endothelium-dependent vasorelaxation induced by acetylcholine, Average (TABLE 3)", "setting": "thoracic aorta sections [4]; CTR + BH4 group, EC (+)", "value": 92.9, "unit": "% maximum relaxation"}, {"measurement": "change of endothelium-dependent vasorelaxation by BH4 administration (in words)", "setting": "thoracic aorta sections [4]; CTR group", "value": "any significant change was not observed"}, {"measurement": "Endothelium-dependent vasorelaxation induced by acetylcholine, Average", "setting": "thoracic aorta sections [4]; FR + BH4 group, EC (+)", "value": 82.6, "unit": "% maximum relaxation"}, {"measurement": "Endothelium-dependent vasorelaxation induced by acetylcholine, Average (TABLE 3)", "setting": "thoracic aorta sections [4]; FR + BH4 group, EC (+)", "value": 82.6, "unit": "% maximum relaxation"}, {"measurement": "change of acetylcholine-induced endothelium-dependent vasorelaxation by BH4 administration (in words)", "setting": "thoracic aorta sections [4]; FR group, EC (+)", "value": "significantly (p<0.001) recovered"}, {"measurement": "change of calcium ionophore-induced endothelium-dependent vasorelaxation by BH4 administration (in words)", "setting": "thoracic aorta sections [5]", "value": "significantly (p<0.001) recovered"}]}
